Test results as given in US6503935B1, “Imidazoles and related compounds as α1A agonists” (Abbott Laboratories, priority 1998, dated 2003).
Where a name gives a salt, the structure may show the parent alone.

How the values were obtained:
[1] = target: T1, α1A (rat submaxillary gland) (Rattus norvegicus, UniProt P43140); assay: Radioligand binding with [3H]-prazosin, α1A; conditions: rat submaxillary gland, [3H]-prazosin
T1 construct: α1A (rat submaxillary gland); from tissue; host or cells: rat submaxillary gland
T1 sequence (P43140 1-466): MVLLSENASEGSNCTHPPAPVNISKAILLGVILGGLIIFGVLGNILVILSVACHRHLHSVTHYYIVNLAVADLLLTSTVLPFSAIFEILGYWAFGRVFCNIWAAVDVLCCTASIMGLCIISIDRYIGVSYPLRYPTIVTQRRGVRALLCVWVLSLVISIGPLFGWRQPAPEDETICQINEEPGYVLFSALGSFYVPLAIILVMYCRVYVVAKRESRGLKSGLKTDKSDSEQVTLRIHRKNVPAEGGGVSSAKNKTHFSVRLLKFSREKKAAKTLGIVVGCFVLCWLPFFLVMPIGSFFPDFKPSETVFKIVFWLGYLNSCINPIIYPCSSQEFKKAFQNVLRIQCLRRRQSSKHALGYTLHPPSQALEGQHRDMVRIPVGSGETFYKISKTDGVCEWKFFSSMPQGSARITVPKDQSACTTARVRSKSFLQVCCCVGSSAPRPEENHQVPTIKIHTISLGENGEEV
Method: (§1) For purposes of discussing α1 adrenoceptor subtypes, the IUPHAR convention of using lower case letters to define molecular clones and upper case letters to indicate pharmacologically defined adrenoceptors has been followed. Compounds of formula I were evaluated in radioligand binding assays specific for α1A (rat submaxillary gland), α1b (hamster receptor expressed in mouse fibroblasts) and α1d (rat receptor expressed in mouse fibroblasts) using [^3H]-prazosin as the radioligand as described in Knepper, et al. J. Pharm.

[2] = target: T2, α1d (rat receptor expressed in mouse fibroblasts) (Rattus norvegicus, UniProt P23944); assay: Radioligand binding with [3H]-prazosin, α1d; conditions: rat receptor expressed in mouse fibroblasts, [3H]-prazosin; read-out: Radioligand Binding Ki α1d (Rat)
T2 construct: expressed in transfected cells; host or cells: mouse fibroblasts
T2 sequence (P23944 1-561): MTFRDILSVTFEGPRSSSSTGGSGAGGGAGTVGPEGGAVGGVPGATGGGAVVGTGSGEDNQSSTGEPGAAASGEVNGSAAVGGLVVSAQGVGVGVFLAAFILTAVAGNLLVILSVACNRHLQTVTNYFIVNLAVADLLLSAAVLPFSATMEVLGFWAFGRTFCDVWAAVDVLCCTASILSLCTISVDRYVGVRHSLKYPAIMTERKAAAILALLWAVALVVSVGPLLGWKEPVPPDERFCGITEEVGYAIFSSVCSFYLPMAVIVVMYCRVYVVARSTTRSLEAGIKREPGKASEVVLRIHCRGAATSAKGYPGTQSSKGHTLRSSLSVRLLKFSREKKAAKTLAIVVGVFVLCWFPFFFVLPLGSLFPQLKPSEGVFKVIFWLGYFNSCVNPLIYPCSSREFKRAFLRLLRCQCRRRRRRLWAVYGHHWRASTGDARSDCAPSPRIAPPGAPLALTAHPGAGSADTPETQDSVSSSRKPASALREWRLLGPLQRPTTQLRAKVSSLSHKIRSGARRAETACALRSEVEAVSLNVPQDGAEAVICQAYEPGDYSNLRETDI
Method: as §1

Molecule | Ki [1] [µM] | Ki [2] [nM]
CCS(=O)(=O)Nc1ccc(OC)c2c1CCCC2c1c[nH]cn1.O=C(O)C=CC(=O)O (centres unmarked) [Example 25, maleate] | 2.46 | –
CCS(=O)(=O)Nc1cccc2c1CCCCC2c1c[nH]cn1 (centres unmarked) [Example 40, N-[5-(1H-imidazol-4-yl)-6,7,8,9-tetrahydro-5H-benzo[a]cyclohepten-1-yl]ethanesulfonamide, maleate] | 1.34 | –
CCC(O)(c1cccc(NS(=O)(=O)CC)c1)c1c[nH]cn1 (centres unmarked) [Example 55, N-[3-(1-hydroxy-1-(1H-imidazol-4-yl)propyl)phenyl]ethanesulfonamide] | 3.65 | 2340
Cc1noc(C)c1S(=O)(=O)Nc1cccc2c1CCCC2c1cnc[nH]1 (centres unmarked) [Example 61, N-[5-(1H-imidazol-5-yl)-5,6,7,8-tetrahydro-1-naphthalenyl]-3,5-dimethyl-4-isoxazolesulfonamide] | 1.56 | –
Methyl 2-({[5-(1H-imidazol-5-yl)-5,6,7,8-tetrahydro-1-naphthalenyl]amino}sulfonyl)-3-thiophenecarboxylate [Example 75] | 4.6 | –

Continued by falling Ki [1], values first:

Ki [1] [µM] | Ki [2] [nM] | Molecule
5.28 | – | Cc1ccc(S(=O)(=O)Nc2cccc3c2CCCC3c2cnc[nH]2)cc1 (centres unmarked) [Example 68, N-[5-(1H-imidazol-5-yl)-5,6,7,8-tetrahydro-1-naphthalenyl]-4-methylbenzenesulfonamide]
5.06 | – | Cc1nn(C)c(Cl)c1S(=O)(=O)Nc1cccc2c1CCCC2c1cnc[nH]1 (centres unmarked) [Example 74, 5-Chloro-N-[5-(1H-imidazol-5-yl)-5,6,7,8-tetrahydro-1-naphthalenyl]-1,3-dimethyl-1H-pyrazole-4-sulfonamide]
4.47 | – | Cc1ccccc1S(=O)(=O)Nc1cccc2c1CCCC2c1cnc[nH]1 (centres unmarked) [Example 69, N-[5-(1H-imidazol-5-yl)-5,6,7,8-tetrahydro-1-naphthalenyl]-2-methylbenzenesulfonamide]
4.15 | – | CCCCS(=O)(=O)Nc1cccc2c1CCCC2c1cnc[nH]1 (centres unmarked) [Example 64, N-[5-(1H-imidazol-5-yl)-5,6,7,8-tetrahydro-1-naphthalenyl]-1-butanesulfonamide]
3.21 | – | CC(=O)Nc1nc(C)c(S(=O)(=O)Nc2cccc3c2CCCC3c2cnc[nH]2)s1 (centres unmarked) [Example 76, N-[5-({[5-(1H-imidazol-5-yl)-5,6,7,8-tetrahydro-1-naphthalenyl]amino}sulfonyl)-4-methyl-1,3-thiazol-2-yl]acetamide]
1.72 | – | CCCS(=O)(=O)Nc1cccc2c1CCCC2c1c[nH]cn1 (centres unmarked) [Example 63, N-[5-(1H-imidazol-5-yl)-5,6,7,8-tetrahydro-1-naphthalenyl]-1-propanesulfonamide]
1.51 | 2280 | O=S(=O)(Nc1cccc2c1CCCC2c1cnc[nH]1)c1ccc(Cl)s1 (centres unmarked) [Example 72, 5-Chloro-N-[5-(1H-imidazol-5-yl)-5,6,7,8-tetrahydro-1-naphthalenyl]-2-thiophenesulfonamide]
